The structures appear in SMILES notation. Where a SMILES comes first, the peptide text is derived from it. [ ]: non-standard residue; d: D form. The star is where a group is joined. Pro(3R,4S-CMe2) = CC1(C)[C@@H]2[C@@H](C(=O)O)NC[C@@H]21; Abu(4,4-F2) = N[C@@H](CC(F)F)C(=O)O; Phg = N[C@H](C(=O)O)c1ccccc1; Tle = CC(C)(C)[C@H](N)C(=O)O; Boc = CC(C)(C)OC(=O)*; βAla = NCCC(=O)O Where only a bound is given, the exact number is not on record here.

Experimental findings from patent US7449447B2, “Peptidomimetic NS3-serine protease inhibitors of hepatitis C virus” (priority 2003, dated 2008) are described below.

T1 sequence (P26663 1013-1207, looked up, natural form): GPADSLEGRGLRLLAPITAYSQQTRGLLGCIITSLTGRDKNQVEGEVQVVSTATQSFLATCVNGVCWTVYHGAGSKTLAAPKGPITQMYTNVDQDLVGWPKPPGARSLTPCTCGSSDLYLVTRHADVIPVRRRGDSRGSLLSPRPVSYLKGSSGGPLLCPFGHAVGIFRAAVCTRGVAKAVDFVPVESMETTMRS

One assay concerns the target T1, HCV NS3/NS4a serine protease (Hepatitis C virus genotype 1b, UniProt P26663).
T1 construct: amino terminus of the NS3 protease domain (amino acids 3-181) with a tetrapeptide linker; made in house; host or cells: E. coli
In words: Spectrophotometric assay for HCV protease inhibitory activity (chromogenic ester substrates). In kind it is biochemical, hepatitis C virus (strain 1b). The note with it: Ki Rating, Table 2; single chain NS4A21-32-GSGS-NS3 3-181 protease, 30° C., pH 6.5. How it is done:
Spectrophotometric Assay: Spectrophotometric assays for the HCV serine protease were performed on the inventive compounds by following the procedure described by R. Zhang et al., Analytical Biochemistry, 270 (1999) 268-275, the disclosure of which is incorporated herein by reference. The assay based on the proteolysis of chromogenic ester substrates is suitable for the continuous monitoring of HCV NS3 protease activity.
HCV NS3 protease (strain 1b) and its NS4A cofactor were constructed as a recombinant single chain protein. The NS4A cofactor domain (amino acid residues 21-32) was fused in frame to the amino terminus of the NS3 protease domain (amino acids 3-181) with a tetrapeptide linker. This NS4A 21-32-GSGS-NS33-181 construct was then expressed in E. coli and purified to >90% homogeneity. Kinetic parameters were determined and found to be the same as that of the full length NS31-631/NS4A1-54 protein complex produced in the baculovirus system (D. L. Sali et al, Biochemistry, 37 (1998) 3392-340). The details of the cloning, expression, purification and kinetic analysis of the of the single chain recombinant protease have been previously described (S. S. Taremi, et al. Protein Science. 7 (1998) 2143-2149.
Protein concentrations were determined by the Biorad dye method using recombinant HCV protease standards previously quantified by amino acid analysis. Prior to assay initiation, the enzyme storage buffer (50 mM sodium phosphate pH 8.0, 300 mM NaCl, 10% glycerol, 0.05% lauryl maltoside and 10 mM DTT) was exchanged for the assay buffer (25 mM MOPS pH 6.5, 300 mM NaCl, 10% glycerol, 0.05% lauryl maltoside, 5 μM EDTA and 5 μM DTT) utilizing a Biorad Bio-Spin P-6 prepacked column.
Protease Assay: HCV protease assays were performed at 30° C. using a 200 μl reaction mix in a 96-well microtiter plate. Assay buffer conditions (25 mM MOPS pH 6.5, 300 mM NaCl, 10% glycerol, 0.05% lauryl maltoside, 5 μM EDTA and 5 μM DTT) were optimized for the NS3/NS4A heterodimer (D. L. Sali et al, ibid.)). Typically, 100 μl mixtures of buffer, substrate and inhibitor were placed in wells and allowed to preincubate at 30° C. for approximately 3 minutes. One hundred μls of pre-warmed protease (30° C.) in assay buffer, was then used to initiate the reaction to produce a final concentration of 1.3 nM HCV). The Substrate cleavage by the protease was monitored over 60 minutes by measuring the release of the phenylazophenol (PAP) product at an absorbance of 370 nm with a continuous read every 30 seconds using a SpectraMax Plus microtiter plate reader (Molecular Devices, Sunnyvale, Calif.). Background hydrolysis of the substrate was subtracted. Inhibitors were tested over a range of concentrations (final DMSO concentration 4%)
Evaluation of Inhibitors The inhibition constants (Ki) for the competitive inhibitors were determined experimentally at fixed concentrations of enzyme and substrate by plotting vo/vi vs. inhibitor concentration ([I]o) according to the rearranged Michaelis-Menten equation for competitive inhibition kinetics: vo/vi=1+[I]o/(Ki(1+[S]o/Km)), where vo is the uninhibited initial velocity, vi is the initial velocity in the presence of inhibitor at any given inhibitor concentration ([I]o) and [S]o is the substrate concentration used. The resulting data were fitted using linear regression and the resulting slope, 1/(Ki(1+[S]o/Km), was used to calculate the Ki value.
Take `COC[C@@H](NC(=O)N[C@H](C(=O)N1C[C@H]2[C@@H]([C@H]1C(=O)N[C@@H](CC(F)F)C(=O)NCCc1ccc(C(=O)OC)cc1)C2(C)C)C(C)(C)C)C(C)(C)C` [Example 142]: the Ki – broadly, a dissociation constant, usually derived from enzyme kinetics or from competition with a known ligand – lay in the range of 100 to 500 nM. Turning to `COC(=O)c1ccc(CCNC(=O)[C@H](CC(F)F)NC(=O)[C@@H]2[C@@H]3[C@H](CN2C(=O)[C@@H](NC(=O)N[C@H](C(=O)OCC2CC2)C(C)(C)C)C(C)(C)C)C3(C)C)cc1` [Example 143], the Ki lay in the range of 100 to 500 nM. Still for that read-out and setting: the result for `CN(C)C(=O)[C@@H](NC(=O)CNC(=O)[C@H](CC(F)F)NC(=O)[C@@H]1[C@@H]2[C@H](CN1C(=O)[C@@H](NC(=O)OC(C)(C)C)C(C)(C)C)C2(C)C)c1ccccc1` [Example 171] (Boc-[Tle][Pro(3R,4S-CMe2)][Abu(4,4-F2)]G[Phg]-NMe2) reads > 500 nM; that for `CC(C)[C@H](NC(=O)N[C@H](C(=O)N1C[C@H]2[C@@H]([C@H]1C(=O)N[C@@H](CC(F)F)C(=O)NCCc1ccc(C(=O)N(C)C)cc1)C2(C)C)C(C)(C)C)C(=O)O` [Example 131], 100 to 500 nM; that for `CN(C)C(=O)[C@@H](NC(=O)CCNC(=O)[C@H](CC(F)F)NC(=O)[C@@H]1[C@@H]2[C@H](CN1C(=O)[C@@H](NC(=O)OC(C)(C)C)C(C)(C)C)C2(C)C)c1ccccc1` [Example 168] (Boc-[Tle][Pro(3R,4S-CMe2)][Abu(4,4-F2)][βAla][Phg]-NMe2), > 500 nM. Same read-out and setting: the result for `CC1(NC(=O)N[C@H](C(=O)N2C[C@H]3[C@@H]([C@H]2C(=O)NC(CC(F)F)C(=O)O)C3(C)C)C(C)(C)C)CCCCC1` (some centres unmarked) [Example 156] reads > 500 nM. On the same count and under the same terms, the result for `CC(C)[C@H](NC(=O)N[C@H](C(=O)N1C[C@H]2[C@@H]([C@H]1C(=O)N[C@@H](CC(F)F)C(=O)NCCc1ccc(C(=O)N(C)C)cc1)C2(C)C)C(C)(C)C)C(=O)OC(C)(C)C` [Example 141] reads 100 to 500 nM. Regarding `CC(C)[C@H](NC(=O)N[C@H](C(=O)N1C[C@H]2[C@@H]([C@H]1C(=O)N[C@@H](CC(F)F)C(=O)NCCc1ccc(C(N)=O)cc1)C2(C)C)C(C)(C)C)C(=O)OC(C)(C)C` [Example 126], the Ki was 100 to 500 nM. Same read-out and setting: the result for `COC(=O)c1ccc(CCNC(=O)[C@H](CC(F)F)NC(=O)[C@@H]2[C@@H]3[C@H](CN2C(=O)[C@@H](NC(=O)N[C@H](C(=O)OC(C)(C)C)C(C)(C)C)C(C)(C)C)C3(C)C)cc1` [Example 139] reads 100 to 500 nM.

Staying with this assay, now noted: Ki, Table 1; single chain NS4A21-32-GSGS-NS3 3-181 protease, 30° C., pH 6.5.
As to `CC(C)[C@@H](CN(C)S(=O)(=O)c1ccccc1)NC(=O)N[C@H](C(=O)N1C[C@H]2[C@@H]([C@H]1C(=O)N[C@@H](CC(F)F)C(=O)NCCc1ccc(C(=O)O)cc1)C2(C)C)C(C)(C)C` [Example 112], the Ki worked out at 50 nM.

For `CN(C[C@@H](NC(=O)N[C@H](C(=O)N1C[C@H]2[C@@H](C1C(=O)N[C@@H](CC(F)F)C(=O)NCCc1ccc(C(N)=O)cc1)C2(C)C)C(C)(C)C)C(C)(C)C)S(C)(=O)=O` (some centres unmarked) [Example 106], the Ki came to 27 nM. Same read-out and setting: the result for `CN(C[C@@H](NC(=O)N[C@H](C(=O)N1C[C@H]2[C@@H](C1C(=O)NC(CC(F)F)C(=O)NCCc1ccc(C(=O)O)cc1)C2(C)C)C(C)(C)C)C(C)(C)C)S(C)(=O)=O` (some centres unmarked) [Example 104] reads 24 nM.

Still in this assay, the particulars now being: Ki, Table 3; rating; single chain NS4A21-32-GSGS-NS3 3-181 protease, 30° C., pH 6.5.
Take `CN(C[C@@H](NC(=O)N[C@H](C(=O)N1C[C@H]2[C@@H]([C@H]1C(=O)N[C@@H](CC(F)F)C(=O)NCCS(=O)(=O)C(C)(C)C)C2(C)C)C(C)(C)C)C(C)(C)C)S(C)(=O)=O` [Example 253]: the Ki was > 500 nM.

Turning to `CN(C[C@@H](NC(=O)N[C@H](C(=O)N1C[C@H]2[C@@H]([C@H]1C(=O)N[C@@H](CC(F)F)C(=O)NCCOc1ccccc1)C2(C)C)C(C)(C)C)C(C)(C)C)S(C)(=O)=O` [Example 221], the Ki was > 500 nM.

Turning to `CCOc1cc(CCNC(=O)[C@H](CC(F)F)NC(=O)[C@@H]2[C@@H]3[C@H](CN2C(=O)[C@@H](NC(=O)N[C@H](CN(C)S(C)(=O)=O)C(C)(C)C)C(C)(C)C)C3(C)C)ccc1OC` [Example 286], the inhibition constant Ki is < 100 nM.

As for `CN(C[C@@H](NC(=O)N[C@H](C(=O)N1C[C@H]2[C@@H]([C@H]1C(=O)N[C@@H](CC(F)F)C(=O)NCCc1ccccn1)C2(C)C)C(C)(C)C)C(C)(C)C)S(C)(=O)=O` [Example 235], the Ki was in the range of 100 to 500 nM.

For `CC(CCc1ccccc1)NC(=O)[C@H](CC(F)F)NC(=O)[C@@H]1[C@@H]2[C@H](CN1C(=O)[C@@H](NC(=O)N[C@H](CN(C)S(C)(=O)=O)C(C)(C)C)C(C)(C)C)C2(C)C` (some centres unmarked) [Example 225], the Ki was > 500 nM. On the same count and under the same terms, the result for `CN(C[C@@H](NC(=O)N[C@H](C(=O)N1C[C@H]2[C@@H]([C@H]1C(=O)N[C@@H](CC(F)F)C(=O)NCCc1ccc(-c3ccccc3)cc1)C2(C)C)C(C)(C)C)C(C)(C)C)S(C)(=O)=O` [Example 288] reads < 100 nM. Same read-out and setting: the result for `CN(C[C@@H](NC(=O)N[C@H](C(=O)N1C[C@H]2[C@@H]([C@H]1C(=O)N[C@@H](CC(F)F)C(=O)NCCc1ccc(F)cc1)C2(C)C)C(C)(C)C)C(C)(C)C)S(C)(=O)=O` [Example 265] reads < 100 nM. Consider `CN(C[C@@H](NC(=O)N[C@H](C(=O)N1C[C@H]2[C@@H]([C@H]1C(=O)N[C@@H](CC(F)F)C(=O)NCCc1cccs1)C2(C)C)C(C)(C)C)C(C)(C)C)S(C)(=O)=O` [Example 216], for which the inhibition constant Ki was < 100 nM. Same read-out and setting: the result for `CN(C[C@@H](NC(=O)N[C@H](C(=O)N1C[C@H]2[C@@H]([C@H]1C(=O)N[C@@H](CC(F)F)C(=O)NCCc1ccc3c(c1)OCO3)C2(C)C)C(C)(C)C)C(C)(C)C)S(C)(=O)=O` [Example 272] reads < 100 nM; that for `COc1ccc(CCNC(=O)[C@H](CC(F)F)NC(=O)[C@@H]2[C@@H]3[C@H](CN2C(=O)[C@@H](NC(=O)N[C@H](CN(C)S(C)(=O)=O)C(C)(C)C)C(C)(C)C)C3(C)C)cc1Br` [Example 292], < 100 nM. Same read-out and setting: the result for `CN(C[C@@H](NC(=O)N[C@H](C(=O)N1C[C@H]2[C@@H]([C@H]1C(=O)N[C@@H](CC(F)F)C(=O)NS(=O)(=O)c1ccccc1)C2(C)C)C(C)(C)C)C(C)(C)C)S(C)(=O)=O` [Example 257] reads > 500 nM; that for `CN(C[C@@H](NC(=O)N[C@H](C(=O)N1C[C@H]2[C@@H]([C@H]1C(=O)N[C@@H](CC(F)F)C(=O)NCCCN1CCCC1=O)C2(C)C)C(C)(C)C)C(C)(C)C)S(C)(=O)=O` [Example 223], > 500 nM.

On to `CN(C[C@@H](NC(=O)N[C@H](C(=O)N1C[C@H]2[C@@H]([C@H]1C(=O)N[C@@H](CC(F)F)C(=O)NCCc1ccc(C(C)(C)C)cc1)C2(C)C)C(C)(C)C)C(C)(C)C)S(C)(=O)=O` [Example 276], for which the inhibition constant Ki is < 100 nM. As for `Cc1ccc(CCNC(=O)[C@H](CC(F)F)NC(=O)[C@@H]2[C@@H]3[C@H](CN2C(=O)[C@@H](NC(=O)N[C@H](CN(C)S(C)(=O)=O)C(C)(C)C)C(C)(C)C)C3(C)C)c(C)c1` [Example 266], the Ki is < 100 nM. As to `CN(C[C@@H](NC(=O)N[C@H](C(=O)N1C[C@H]2[C@@H]([C@H]1C(=O)N[C@@H](CC(F)F)C(=O)NCC(O)c1ccccc1)C2(C)C)C(C)(C)C)C(C)(C)C)S(C)(=O)=O` (some centres unmarked) [Example 246], the Ki was in the range of 100 to 500 nM. Same read-out and setting: the result for `CN(C[C@@H](NC(=O)N[C@H](C(=O)N1C[C@H]2[C@@H]([C@H]1C(=O)N[C@@H](CC(F)F)C(=O)NCc1cccs1)C2(C)C)C(C)(C)C)C(C)(C)C)S(C)(=O)=O` [Example 212] reads > 500 nM.

The same assay, now with this note: read-out: Ki Rating; Table 2; single chain NS4A21-32-GSGS-NS3 3-181 protease, 30° C., pH 6.5.
`COC(=O)c1ccc(CCNC(=O)[C@H](CC(F)F)NC(=O)[C@@H]2[C@@H]3[C@H](CN2C(=O)[C@@H](NC(=O)N[C@H](C(=O)OC(C)(C)C)C(C)C)C(C)(C)C)C3(C)C)cc1` [Example 137]: the inhibition constant (Ki) lay within 100 to 500 nM.
